# From patent publication US6498126B1, “Herbicide combination with acylated aminophenylsulfonylureas” (Aventis CropScience GmbH, priority 1999, dated 2002)
# Test system: Setaria lutescens
# Experiment: Herbicidal action (field trials), post-emergence treatment, visual scoring of damage
# Assay type: in vivo
# Description: The seeds or rhizome pieces of typical harmful plants were planted and grown under natural field conditions. After the harmful plants had emerged, they were treated, as a rule at the 2-to 8-leaf stage, with various dosages of the compositions according to the invention at a water application rate of 100 to 400 I/ha (converted).
# After the treatment (approx. 4-6 weeks after application), the herbidical activity of the active ingredients or active ingredient mixtures was scored visually by comparing the treated plots with the untreated control plots. Damage and development of all aerial parts of the plants was recorded. Scoring was done on a percentage scale (100% action=all plants dead; 50% action=50% of the plants and green plant parts dead; 0% action=no discernible action=like control plot). The score figures of in each case 4 plots was averaged.
# The results are shown in the tables which follow, the action when using active ingredients A and B independently being stated in brackets.
smiles,measurement,setting,value
"COc1cc(OC)nc(NC(=O)NS(=O)(=O)c2cc(NC=O)ccc2C(=O)N(C)C)n1 [A1.1, N-[N-(4,6-dimethoxypyrimidin-2-yl)-aminocarbonyl]-2-(dimethyl-aminocarbonyl)-5-(formylamino)benzenesulfonamide]",Herbicidal effect on Setaria lutescens Damage in %,"Table 1, 35 gAS/ha, treatment at the 6-8 leaf stage, scoring 27 days after application",30%
same,Herbicidal effect on Setaria lutescens Damage in %,"Table 1, 70 gAS/ha, treatment at the 6-8 leaf stage, scoring 27 days after application",97%
same,Herbicidal effect on Setaria lutescens Damage in %,"Table 2, 35 gSA/ha, treatment at the 6-8 leaf stage, scoring 27 days after application",30%
same,Herbicidal effect on Setaria lutescens Damage in %,"Table 2, 70 gSA/ha, treatment at the 6-8 leaf stage, scoring 27 days after application",97%
same,Herbicidal effect on Setaria lutescens Damage in %,"Table 3, 35 gAS/ha, treatment at the 2-leaf stage, scoring 39 days after application",65%
same,Herbicidal effect on Setaria lutescens Damage in %,"Table 3, 70 gAS/ha, treatment at the 2-leaf stage, scoring 39 days after application",87%
same,Herbicidal effect on Setaria lutescens Damage in %,"Table 4, 35 gAS/ha, treatment at the 6-8 leaf stage, scoring 27 days after application",65%
same,Herbicidal effect on Setaria lutescens Damage in %,"Table 4, 70 gAS/ha, treatment at the 6-8 leaf stage, scoring 27 days after application",85%
"CS(=O)(=O)NC(=O)c1cc(Oc2ccc(C(F)(F)F)cc2Cl)ccc1[N+](=O)[O-] [Fumesafen (B2.9), 5-(2-chloro-α,α,α-trifluoro-p-tolyloxyl)N-methylsulfonyl-2-nitrobenzamide, reference compound]",Herbicidal effect on Setaria lutescens Damage in %,"Table 3, 240 gAS/ha, treatment at the 2-leaf stage, scoring 39 days after application",25%
"COc1cc(OC)nc(Sc2cccc(Cl)c2C(=O)[O-])n1.[Na+] [Pyrithiobac (B2.7), sodium 2-chloro-6-(4,6-dimethoxypyrimidin-2-ylthio)benzoate, reference compound]",Herbicidal effect on Setaria lutescens Damage in %,"Table 4, 105 gAS/ha, treatment at the 6-8 leaf stage, scoring 27 days after application",25%
"CCOc1nc(NC)nc(NC(=O)NS(=O)(=O)c2ccccc2C(=O)OC)n1 [ethametsulfuron (B2.6), methyl 2-{N-[N-(4-ethoxy-6-methylamino-1,3,5-triazin-2-yl)-aminocarbonyl]-aminosulfonyl}benzoate, reference compound]",Herbicidal effect on Setaria lutescens Damage in %,"Table 1, 15 gAS/ha, treatment at the 6-8 leaf stage, scoring 27 days after application",33%
